Experimental data: patent publication US10508109B2 (priority 2015, dated 2019)
Counter-ions that a name gives are not always drawn. Like-named read-outs stand apart in the source and are kept apart here.

How the values were obtained:
SUV39H2 = SUV39H2 (Homo sapiens (Human), UniProt Q9H5I1); details: read-out: IC50 (μM) Suv 39H2 assay
A549 = assay: Cell-based assay, anti-proliferative activity (Cell Counting Kit-8, 72 hours); details: Homo sapiens
Method: 100 micro-L of cell suspension was seeded onto 96-well microtiter plate (ViewPlate-96FTC, PerkinElmer). […] Cellular growth was determined using Cell Counting Kit-8 (DOJINDO) at 72 hours after the exposure of the candidate inhibitors. […] Accurate IC50 values were calculated as described previously.

CCD-18Co = assay: as above; details: Homo sapiens, read-out: IC50 (μM) CCD-18Co
Method: (§1) Active candidate inhibitors against SUV39H2 were evaluated for their target-specific cytotoxicity using A549, HCT-116, HFL1, CCD-18Co and PC14. 100 micro-L of cell suspension was seeded onto 96-well microtiter plate (ViewPlate-96FTC, PerkinElmer). The initial cell concentration of A549, HCT-116, HFL1, CCD-18Co and PC14 were 3,000 cells/well, 2,000 cells/well and 2,500 cells/well, respectively. Cellular growth was determined using Cell Counting Kit-8 (DOJINDO) at 72 hours after the exposure of the candidate inhibitors. IC50 was used as an indicator of the anti-proliferative activity of the inhibitors, and calculated by serial dilution method (0, 1.5625, 3.125, 6.25, 12.5, 25, 50, and 100 micro-M). Accurate IC50 values were calculated as described previously.

HCT-116 = assay: as above; details: Homo sapiens, read-out: IC50 (μM) HCT-116
Method: as §1

HFL1 = assay: as above; details: Homo sapiens, read-out: IC50 (μM) HFL1
Method: as §1

[1] = A549, 72 h, read-out: IC50 (μM) A549
[2] = A549 cells, 72 hours exposure, Cell Counting Kit-8, read-out: A549 IC50
[3] = A549 cells, Cell Counting Kit-8, 72 hours, read-out: IC50 (μM) A549
[4] = CCD-18Co cells, Cell Counting Kit-8, 72 hours
[5] = HCT-116 cells, Cell Counting Kit-8, 72 hours
[6] = HFL1 cells, Cell Counting Kit-8, 72 hours

Sequence of SUV39H2 (Q9H5I1 whole entry): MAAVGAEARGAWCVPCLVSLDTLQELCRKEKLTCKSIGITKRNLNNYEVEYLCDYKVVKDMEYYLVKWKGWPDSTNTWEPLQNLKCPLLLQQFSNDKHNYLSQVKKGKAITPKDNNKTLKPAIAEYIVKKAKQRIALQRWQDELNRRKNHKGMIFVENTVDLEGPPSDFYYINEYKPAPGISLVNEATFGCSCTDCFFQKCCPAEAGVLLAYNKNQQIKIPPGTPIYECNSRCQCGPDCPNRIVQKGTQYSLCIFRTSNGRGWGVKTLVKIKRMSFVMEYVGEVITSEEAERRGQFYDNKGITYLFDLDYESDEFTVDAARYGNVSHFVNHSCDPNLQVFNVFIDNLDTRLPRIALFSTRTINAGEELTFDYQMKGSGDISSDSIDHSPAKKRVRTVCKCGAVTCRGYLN

Compound: COc1cc(OC)c(-c2cn3ccc(N4CCC(N)C4)nc3n2)cc1Br (centres unmarked) [Example 19, hydrochloride]
- IC50 (SUV39H2): 0.0292 µM
- IC50 (A549; [1]): 11 µM
- IC50 (CCD-18Co; CCD-18Co, 72 h): 16 µM
- IC50 (HCT-116; HCT-116, 72 h): 7.9 µM
- IC50 (HFL1; HFL1, 72 h): 4.2 µM

Compound: COc1cc(OC)c(-c2cn3ccc(N4CCC(CN)CC4)cc3n2)cc1Cl [Example 16, (1-(2-(5-Chloro-2,4-dimethoxyphenyl)imidazo[1,2-a]pyridin-7-yl)piperidin-4-yl)-methanamine hydrochloride]
- IC50 (SUV39H2): 0.0122 µM
- IC50 (A549; [1]): 8.8 µM
- IC50 (CCD-18Co; CCD-18Co, 72 h): 14 µM
- IC50 (HCT-116; HCT-116, 72 h): 8.7 µM
- IC50 (HFL1; HFL1, 72 h): 11 µM

Compound: COc1cc(OC)c(-c2cn3ccc(N4CCN(c5cnc(N6CCNCC6)nc5)CC4)cc3n2)cc1Cl [Example 344, 2-(5-chloro-2,4-dimethoxyphenyl)-7-(4-(2-(piperazin-1-yl)pyrimidin-5-yl)piperazin-1-yl)imidazo[1,2-a]pyridine bis(2,2,2-trifluoroacetate)]
- IC50 (A549; [2]): 0.35 µM

Compound: COc1cc(OC)c(-c2cn3ccc(N4CCN(CCO)CC4)nc3n2)cc1Cl [Example 45, 2-(4-(2-(5-chloro-2,4-dimethoxyphenyl)imidazo[1,2-a]pyrimidin-7-yl)-piperazin-1-yl)ethanol]
- IC50 (SUV39H2; enzyme assay): 0.0365 µM
- IC50 (A549; [3]): 18 µM
- IC50 (CCD-18Co; [4]): 21 µM
- IC50 (HCT-116; [5]): 12 µM
- IC50 (HFL1; [6]): 17 µM

Compound: COc1cc(OC)c(-c2cn3ccc(N4CCOCC4)cc3n2)cc1F [Example 87, 4-(2-(5-fluoro-2,4-dimethoxyphenyl)imidazo[1,2-a]pyridin-7-yl)morpholine hydrobromide]
- IC50 (SUV39H2; enzyme assay): 0.032 µM
- IC50 (A549; [3]): 3.3 µM
- IC50 (CCD-18Co; [4]): 5.6 µM
- IC50 (HCT-116; [5]): 2.3 µM
- IC50 (HFL1; [6]): 4 µM

Compound: COc1cc(OC)c(-c2cn3ccc(C4=CCN(CCF)CC4)cc3n2)cc1Cl [Example 113, 2-(5-chloro-2,4-dimethoxyphenyl)-7-(1-(2-fluoroethyl)-1,2,3,6-tetrahydropyridin-4-yl)imidazo[1,2-a]pyridine]
- IC50 (SUV39H2; enzyme assay): 0.0571 µM
- IC50 (A549; [3]): 6.7 µM
- IC50 (CCD-18Co; [4]): 7.6 µM
- IC50 (HCT-116; [5]): 6.7 µM
- IC50 (HFL1; [6]): 5.2 µM

Compound: 3-amino-N-(3-(2-(5-bromo-2,4-dimethoxyphenyl)imidazo[1,2-a]pyrimidin-7-yl)cyclopentyl)propanamide hydrochloride [Example 68]
- IC50 (SUV39H2; enzyme assay): 0.0162 µM

Compound: COc1cc(OC)c(-c2cn3ccc(N4CCOCC4)nc3n2)cc1Cl [Example 79, 4-(2-(5-chloro-2,4-dimethoxyphenyl)imidazo[1,2-a]pyrimidin-7-yl)-morpholine hydrobromide]
- IC50 (SUV39H2; enzyme assay): 0.0344 µM
- IC50 (A549; [3]): 21 µM
- IC50 (CCD-18Co; [4]): 22 µM
- IC50 (HCT-116; [5]): 21 µM
- IC50 (HFL1; [6]): 15 µM

Compound: COc1cc(OC)c(-c2cn3cc(NCCN)ccc3n2)cc1Cl [Example 81, N^1-(2-(5-chloro-2,4-dimethoxyphenyl)imidazo[1,2-a]pyridin-6-yl)ethane-1,2-diamine]
- IC50 (SUV39H2; enzyme assay): 0.0179 µM
- IC50 (A549; [3]): 13 µM
- IC50 (CCD-18Co; [4]): 11 µM
- IC50 (HCT-116; [5]): 11 µM
- IC50 (HFL1; [6]): 5.6 µM

Compound: COCCN1CCN(c2ccn3cc(-c4cc(Cl)c(OC)cc4OC)nc3c2)CC1 [Example 105, 2-(5-chloro-2,4-dimethoxyphenyl)-7-(4-(2-methoxyethyl)piperazin-1-yl)imidazo[1,2-a]pyridine]
- IC50 (SUV39H2; enzyme assay): 0.0111 µM
- IC50 (A549; [3]): 7.2 µM
- IC50 (CCD-18Co; [4]): 8.1 µM
- IC50 (HCT-116; [5]): 7 µM
- IC50 (HFL1; [6]): 8.3 µM

Compound: COc1cc(OC)c(-c2cn3ccc(N4CCC(NC(=O)CCN)C4)cc3n2)cc1Cl (centres unmarked) [Example 50, 3-amino-N-(1-(2-(5-chloro-2,4-dimethoxyphenyl)imidazo[1,2-a]pyridin-7-yl)pyrrolidin-3-yl)propanamide]
- IC50 (SUV39H2; enzyme assay): 0.00575 µM

Compound: COc1cc(OC)c(-c2cn3ccc(N4CCC(NC(=O)NCCN)C4)cc3n2)cc1Cl (centres unmarked) [Example 62, 1-(2-aminoethyl)-3-(1-(2-(5-chloro-2,4-dimethoxyphenyl)imidazo[1,2-a]-pyridin-7-yl)pyrrolidin-3-yl)urea]
- IC50 (SUV39H2; enzyme assay): 0.00514 µM

Compound: COc1cc(OC)c(-c2cn3ccc(N4CCN(CCC(=O)O)CC4)cc3n2)cc1Cl [Example 133, 3-(4-(2-(5-chloro-2,4-dimethoxyphenyl)imidazo[1,2-a]pyridin-7-yl)piperazin-1-yl)propanoic acid]
- IC50 (SUV39H2; enzyme assay): 0.0137 µM

Compound: COCC(=O)N1CCN(c2ccn3cc(-c4cc(Cl)c(OC)cc4OC)nc3c2)C(C)C1 (centres unmarked) [Example 313, 1-(4-(2-(5-chloro-2,4-dimethoxyphenyl)imidazo[1,2-a]pyridin-7-yl)-3-methylpiperazin-1-yl)-2-methoxyethanone]
- IC50 (A549; [2]): 10 µM

Compound: COc1cc(OC)c(-c2cn3ccc(N4CCCC4)nc3n2)cc1C#N [Example 69, 2,4-dimethoxy-5-(7-(pyrrolidin-1-yl)imidazo[1,2-a]pyrimidin-2-yl)-benzonitrile hydrochloride]
- IC50 (SUV39H2): 0.0141 µM

Compound: COc1cc(OC)c(-c2cn3ccc(C)cc3n2)cc1Cl [Example 76, 2-(5-chloro-2,4-dimethoxyphenyl)-7-methylimidazo[1,2-a]pyridine hydrobromide]
- IC50 (SUV39H2; enzyme assay): 0.0665 µM

Compound: COc1cc(OC)c(-c2cn3ccc(O)cc3n2)cc1Cl [Example 20, 2-(5-chloro-2,4-dimethoxyphenyl)imidazo[1,2-a]pyridin-7-ol]
- IC50 (SUV39H2; enzyme assay): 0.09 µM

Compound: COc1cc(OC)c(-c2cn3ccc(N4CCC(NC(N)=O)C4)cc3n2)cc1Cl (centres unmarked) [Example 38, 1-(1-(2-(5-chloro-2,4-dimethoxyphenyl)imidazo[1,2-a]pyridin-7-yl)pyrrolidin-3-yl)urea]
- IC50 (SUV39H2; enzyme assay): 0.00411 µM

Compound: COC(=O)c1ccc(CN[C@H]2CC[C@@H](Nc3ccn4cc(-c5cc(Cl)c(OC)cc5OC)nc4c3)CC2)cc1 [Example 409, methyl 4-(((cis-4-((2-(5-chloro-2,4-dimethoxyphenyl)imidazo[1,2-a]pyridin-7-yl)amino)cyclohexyl)amino)methyl)benzoate bis(2,2,2-trifluoroacetate)]
- IC50 (A549; [2]): 0.86 µM

Compound: COc1cc(OC)c(-c2cn3ccc(N4CC[C@H](NCC5CCN(S(=O)(=O)C6CC6)CC5)C4)cc3n2)cc1Cl [Example 421, (S)-1-(2-(5-chloro-2,4-dimethoxyphenyl)imidazo[1,2-a]pyridin-7-yl)-N-((1-(cyclopropylsulfonyl)piperidin-4-yl)methyl)pyrrolidin-3-amine]
- IC50 (A549; [2]): 0.94 µM

Compound: COc1cc(OC)c(-c2cn3ccc(N)nc3n2)cc1C#N [Example 46, 5-(7-aminoimidazo[1,2-a]pyrimidin-2-yl)-2,4-dimethoxybenzonitrile]
- IC50 (SUV39H2; enzyme assay): 0.0453 µM

Compound: COc1cc(OC)c(-c2cn3ccc(C4=CCN(CCC(=O)O)CC4)cc3n2)cc1Cl [Example 141, 3-(4-(2-(5-chloro-2,4-dimethoxyphenyl)imidazo[1,2-a]pyridin-7-yl)-5,6-dihydropyridin-1(2H)-yl)propanoic acid]
- IC50 (SUV39H2; enzyme assay): 0.0777 µM

Compound: COc1cc(OC)c(-c2cn3ccc(NCCN4CCCCC4)cc3n2)cc1Cl [Example 64, 2-(5-chloro-2,4-dimethoxyphenyl)-N-(2-(piperidin-1-yl)ethyl)imidazo[1,2-a]pyridine-7-amine]
- IC50 (A549; [1]): 4.2 µM
- IC50 (CCD-18Co; CCD-18Co, 72 h): 4.5 µM
- IC50 (HCT-116; HCT-116, 72 h): 3.4 µM
- IC50 (HFL1; HFL1, 72 h): 2.6 µM

Compound: COc1cc(OC)c(-c2cn3ccc(N4CCC(NC(=O)[C@H](CCC(N)=O)NC(=O)OC(C)(C)C)C4)cc3n2)cc1Cl (stereo partly drawn) [Example 39, tert-butyl ((2S)-5-amino-1-((1-(2-(5-chloro-2,4-dimethoxyphenyl)imidazo[1,2-a]pyridin-7-yl)pyrrolidin-3-yl)amino)-1,5-dioxopentan-2-yl)carbamate]
- IC50 (SUV39H2; enzyme assay): 0.00489 µM
